# Test results published in patent US6900194B1, “Use of substituted 4-biarylbutyric and 5-biarylpentanoic acid derivatives as matrix metalloprotease inhibitors for the treatment of respiratory diseases” (Bayer Aktiengesellschaft, priority 1998, dated 2005).
# Assays:
# [1] = target: T1, MMP-12 (Macrophage Elastase) (Homo sapiens, UniProt P39900); experiment: P218 quenched fluorescence assay, MMP-12; assay type: biochemical; settings: human; read-out: Potency Ki vs. MMP-12
# T1 construct: made in house; host or cells: E. coli BL21 (DE3)
# T1 sequence (P39900 106-470): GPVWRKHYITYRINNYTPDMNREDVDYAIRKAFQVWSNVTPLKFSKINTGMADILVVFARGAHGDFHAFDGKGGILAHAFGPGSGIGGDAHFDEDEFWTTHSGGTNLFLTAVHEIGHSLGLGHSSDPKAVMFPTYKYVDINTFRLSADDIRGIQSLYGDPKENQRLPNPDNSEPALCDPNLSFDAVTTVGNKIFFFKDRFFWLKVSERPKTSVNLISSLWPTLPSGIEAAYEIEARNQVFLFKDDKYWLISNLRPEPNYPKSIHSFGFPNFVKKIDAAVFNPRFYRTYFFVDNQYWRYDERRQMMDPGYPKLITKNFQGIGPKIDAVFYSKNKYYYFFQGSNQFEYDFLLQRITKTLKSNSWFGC
# Text: (§1) P218 Quenched Fluorescence Assay for MMP Inhibition:
# (§2) This assay is adapted from the one described by Knight et al., FEBS Letters, 296, 263-266 (1992) for MMP-3 and a related substrate. The rate of hydrolysis of the synthetic substrate H-MCA-Pro-Lys-Pro-Leu-Ala-Leu-DPA-Ala-Arg-NH2 (P218) by the respective MMPs is monitored fluorometrically, using an excitation wavelength of 340 nm and an emission wavelength of 395 nm, in the presence or absence of the test compounds. The substrate is made up initially in 100% DMSO to a concentration of 1×10^−2 M, then diluted in assay buffer to a final concentration of 20 μM. Test compounds (10 mM in DMSO) are diluted in assay buffer at an initial concentration of 0.3-1000 nM. These are diluted to a final concentration in the assay from 0.03 nM to 100 nM. The reaction is initiated by the addition of substrate at a final concentration of 20 μM. The total assay volume in a 96 well microtitre plate is 150 μl, Cleavage of the substrate between the Leu-Ala residues allows the fluorescence of the MCA group to be detected on a fluorometer (Cytofluor II) following excitation at 340 nm and emission at 395 nm. Change in fluorescence is continually monitored for a 40 min period.
# (§3) The Ki's are calculated using the method described by Williams and Morrison, Methods in Enzymology, 63, 437-467 (1979) to measure Ki apparent for tight binding inhibitors, and is summarised as follows: [I]0/(1−vi/v0)=Ki apparent ×vi/v0+[E]0 [I]0 and [E]0 are inhibitor and enzyme concentrations, and vi/v0 are reaction velocities with/without inhibitor. [I]0 is equal to IC50 when vi is half v0, so that: IC50=0.5×[E]0+Ki apparent
# IC50's are determined at each enzyme concentration using Xlfit software. Ki apparent is then determined graphically from the plot of IC50 versus MMP concentration, using the intercepts to estimate Ki apparent. Thus, intercept values at IC50=0 and [E]0=0 are equal to −2×Ki apparent and Ki apparent, respectively. IC50 values are calculated using % inhibition values at each enzyme concentration, ensuring data is taken from the linear part of the reaction rate curves. The Ki can then be calculated from the equation: Ki=Ki apparent/[…] where S=substrate concentration and Km=dissociation constant.
# The assay conditions are modified as follows for each of the MMPs used:
# MMP-12 (Macrophage Elastase)
# […] is isolated according to the following procedure: Human GenePool cDNA libraries from human lung, spleen, and brain were obtained from Invitrogen (Groningen, The Netherlands). HPLC-purified oligonucleotides were purchased from BioTez (Berlin, Germany), E. coli strain DH5α from Life Technologies (Heidelberg, Germany), strain BL21(DE3) from Novagen (Heidelberg, Germany). Pfu DNA-Polymerase and pBlueScriptII-KS(+) were from Stratagene (Heidelberg, Germany). DNA plasmid and DANN gel isolation kits were purchased from Qiagen (Hilden, Germany). All restriction enzymes and DNA modifying enzymes were ordered from New England Biolabs (Schwalbach, Germany). HiTrapQ (5 ml) was from Pharmacia Biotech (Freiburg, Germany). Vydac C4-RP HPLC columns (214TP54: 300 Å, 5 μm, 4.6×250 mm; 214TP1022: 300 Å, 10 μm, 22×250 mm) were from Promochem (Wesel, Germany). Fluorogenic substrate P218 was purchased from Polypeptide Laboratories (Wolfenbüttel, Germany). Ultrapure urea was purchased from Schwarz-Mann (Cleveland, Ohio). Ready-to-use NuPAGE 10% Bis-Tris Polyacrylamide SDS-PAGE gels and NuPAGE 20×MOPS running buffer were obtained from Novex (Frankfurt/Main, Germany) 10% AMPA and all other chemicals were from Sigma (Deisenhofen, Germany). […]
# MMP-9 (Gelatinase B) = target: T2, MMP-9 (Gelatinase B) (Homo sapiens, UniProt P14780); experiment: P218 quenched fluorescence assay, MMP-9; assay type: biochemical; settings: read-out: Potency Ki vs. MMP-9
# T2 construct: polymorphonuclear leukocytes (PMN) preparations are isolated as described above from 3 or more units of freshly drawn whole blood; from tissue; host or cells: polymorphonuclear leukocytes from whole blood, stimulated with PMA; supernatant purified
# T2 sequence (P14780 94-707): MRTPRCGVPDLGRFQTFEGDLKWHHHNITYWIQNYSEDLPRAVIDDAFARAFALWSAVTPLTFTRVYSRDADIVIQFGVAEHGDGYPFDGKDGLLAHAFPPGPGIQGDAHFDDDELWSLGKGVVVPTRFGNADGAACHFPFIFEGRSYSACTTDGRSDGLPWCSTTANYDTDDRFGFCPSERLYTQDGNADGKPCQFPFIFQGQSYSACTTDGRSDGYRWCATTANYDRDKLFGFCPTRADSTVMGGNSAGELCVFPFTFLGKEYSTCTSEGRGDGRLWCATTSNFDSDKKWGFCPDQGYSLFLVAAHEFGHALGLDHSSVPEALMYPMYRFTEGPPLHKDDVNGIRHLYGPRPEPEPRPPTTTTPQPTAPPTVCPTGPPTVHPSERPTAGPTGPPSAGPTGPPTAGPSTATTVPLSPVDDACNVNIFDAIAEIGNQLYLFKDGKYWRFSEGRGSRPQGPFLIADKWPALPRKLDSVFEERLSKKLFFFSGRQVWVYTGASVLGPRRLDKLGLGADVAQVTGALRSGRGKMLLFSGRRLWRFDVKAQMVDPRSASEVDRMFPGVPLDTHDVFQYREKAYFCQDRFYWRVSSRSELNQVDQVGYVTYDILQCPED
# Text: as §1
# as §2, with “Test compounds (10 mM in DMSO) are diluted in assay buffer at an initial concentration of 0.3-1000 nM. These are diluted to a final concentration in the assay from 0.03 nM to 100 nM. The reaction is initiated by the addition of substrate at a final concentration of 20 μM.” left out
# as §3, with “[I]0 is equal to IC50 when vi is half v0, so that: IC50=0.5×[E]0+Ki apparent” left out
# (§4) IC50's are determined at each enzyme concentration using Xlfit software. […]
# MMP-2 (Gelatinase A) = MMP-2 (Gelatinase A) (Homo sapiens, UniProt P08253); experiment: biochemical
# Sequence of MMP-2 (Gelatinase A) (P08253 110-660): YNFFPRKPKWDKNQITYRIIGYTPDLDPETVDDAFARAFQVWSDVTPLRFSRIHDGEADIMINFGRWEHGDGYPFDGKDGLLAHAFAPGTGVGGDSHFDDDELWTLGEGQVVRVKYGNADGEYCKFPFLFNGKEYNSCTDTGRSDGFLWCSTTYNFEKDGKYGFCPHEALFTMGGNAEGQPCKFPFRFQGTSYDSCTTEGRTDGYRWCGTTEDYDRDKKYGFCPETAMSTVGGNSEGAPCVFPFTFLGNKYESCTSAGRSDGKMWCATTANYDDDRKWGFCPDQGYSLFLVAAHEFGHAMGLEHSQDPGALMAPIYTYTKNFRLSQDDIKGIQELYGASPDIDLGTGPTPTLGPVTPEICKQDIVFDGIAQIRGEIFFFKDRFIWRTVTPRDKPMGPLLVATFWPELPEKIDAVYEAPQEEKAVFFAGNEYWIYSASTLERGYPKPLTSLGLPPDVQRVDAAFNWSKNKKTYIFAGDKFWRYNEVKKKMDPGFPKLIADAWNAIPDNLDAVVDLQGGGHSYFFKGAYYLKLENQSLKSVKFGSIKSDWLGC
# Rat MMP-13 = target: T3, Rat MMP-13 (Rattus norvegicus, UniProt P23097); experiment: P218 quenched fluorescence assay, MMP-13 (rat); assay type: biochemical; settings: read-out: IC50 vs. MMP-13 (value marked *)
# T3 construct: Rat pro-MMP-13 was obtained according to the protocol of Roswit, Arch; Biochem. Biophys
# Text: as §1
# as §2, with “Test compounds (10 mM in DMSO) are diluted in assay buffer at an initial concentration of 0.3-1000 nM. These are diluted to a final concentration in the assay from 0.03 nM to 100 nM. The reaction is initiated by the addition of substrate at a final concentration of 20 μM.” left out
# as §3, with “[I]0 is equal to IC50 when vi is half v0, so that: IC50=0.5×[E]0+Ki apparent” left out
# as §4
SMILES,Ki [1],Ki (MMP-9 (Gelatinase B)),IC50 (MMP-2 (Gelatinase A)),IC50 (Rat MMP-13),Ki (MMP-2 (Gelatinase A))
"CCOc1ccc(-c2ccc(C(=O)CC(CCN3C(=O)c4ccccc4C3=O)C(=O)O)cc2)cc1 (single isomer, unassigned; (+)) [Example 2, (+)-2-[2-(1,3-Dioxo-1,3-dihydro-2H-isoindol-2-yl)ethyl]-4-(4′-ethoxy[1,1′-biphenyl]-4-yl)-4-oxobutanoic acid]",0.03 nM,1.2 nM,3.2 nM,69 nM,–
"O=C(CC(CCN1C(=O)c2ccccc2C1=O)C(=O)O)c1ccc(-c2ccc(Cl)cc2)cc1 (single isomer, unassigned; (+)) [Example 4, (+)-4-(4′-Chloro[1,1′-biphenyl]4-yl)-2-[2-(1,3-dioxo-1,3-dihydro-2H-isoindol-2-yl)ethyl]-4-oxobutanoic acid]",0.3 nM,0.7 nM,–,296 nM,0.5 nM
